{"source": "ChEMBL document CHEMBL5042522", "about": "“One- and Two-Photon Uncaging of Carbon Monoxide (CO) with Real-Time Monitoring: On-Demand Carbazole-Based Dual CO-Releasing Platform to Test over Single and Combinatorial Approaches for the Efficient Regression of Orthotopic Murine Melanoma In Vivo” (J Med Chem, 2022)", "key": {"[1]": {"assay": "Stability of compound in PBS buffer at pH 7.4 at 100 uM incubated for 72 hrs under dark condition by RP-HPLC analysis", "format": "physicochemical", "conditions": "read-out: Stability; call rule not given here"}, "[2]": {"assay": "Stability of compound in PBS buffer at pH 7.4 at 100 uM incubated for 72 hrs under dark condition in presence of cysteine by Reverse-phase HPLC analysis", "format": "physicochemical", "conditions": "read-out: Stability"}, "[3]": {"assay": "Photorelease ability in CDCl3 assessed as compound decomposition by measuring (2,2'-(9-ethy1-9H-carbazole-3,6-chyl)bis(2-oxoacetaldehyde) photoproduct formation at 100 uM measured after 20 mins of irradiation with >= 365 nm Hg lamp by 1H-NMR spectroscopy", "format": "physicochemical"}, "[4]": {"assay": "Photorelease ability in PBS buffer at pH 7.4 assessed as compound decomposition by measuring 1-(9-ethyl-9H-carbazol-3-y1)-2,2-dihydroxyethan-l-one photoproduct formation at 100 uM measured upto 5.5 mins of irradiation with >= 365 nm Hg lamp by RP-HPLC analysis followed by 1H-NMR analysis", "format": "physicochemical", "conditions": "pH 7.4, 5.5 min"}, "[5]": {"assay": "Photorelease activity in PBS buffer at pH 7.4 assessed as release of CO using 3',6'-Bis(allyloxy)-3H-spiro(isobenzofuran-1,9'-xanthen)-3-one fluorescent probe at 500 uM irradiated with >= 365 nm Hg lamp for 30 mins in presence of PdCl2 by absorption spectroscopy", "format": "physicochemical", "conditions": "pH 7.4, 0.5 h"}, "[6]": {"assay": "Drug uptake in mouse B16-F10 cells assessed as drug internalization by measuring blue fluorescence at 20 uM incubated for 4 hrs followed by propidium iodide staining based confocal laser scanning microscopy", "format": "ADME, cell-based", "conditions": "b16-f10, 4 h"}, "B16-F10 [7]": {"test_system": "B16-F10", "assay": "Photorelease activity in mouse B16-F10 cells assessed as uncaging of active molecules of drug by measuring green fluorescence at 20 uM incubated for 4 hrs irradiated with >= 365 nm Hg lamp for 5 mins and further incubated for 4 hrs by propidium iodide staining based confocal laser scanning microscopy", "format": "functional, cell-based", "conditions": "time 8.0 hrs"}, "B16-F10 [8]": {"test_system": "B16-F10", "assay": "Cytotoxicity against mouse B16-F10 cells assessed as cell viability at 1.25 to 10 uM irradiated with >= 365 nm Hg lamp for 5 mins after 6 hrs post-treatment and further incubated for 72 hrs by MTT assay", "format": "functional", "conditions": "dose 1.25-10 µM, time 78 hrs"}, "[9]": {"assay": "Photolysis of compound in PBS buffer at pH 7.4 assessed as compound decomposition by measuring final photoproduct formation at 0.1 mM irradiated with >= 365 nm for 20 mins by RP-HPLC analysis", "format": "physicochemical", "conditions": "pH 7.4, 20 min, 100 µM"}, "[10]": {"assay": "Photorelease ability in PBS buffer at pH 7.4 assessed as compound decomposition at 100 uM irradiated with >= 365 nm Hg lamp upto 30 mins by UV absorption spectroscopy", "format": "physicochemical", "conditions": "read-out: Drug degradation"}, "[11]": {"assay": "Photorelease ability in PBS buffer at pH 7.4 assessed as fast uncaging of CO at 100 uM irradiated with >= 365 nm Hg lamp for 60 mins by RP-HPLC analysis", "format": "physicochemical", "conditions": "pH 7.4, 1 h"}, "[12]": {"assay": "Photolysis of compound in PBS buffer at pH 7.4 assessed as compound decomposition by measuring final photoproduct formation at 0.1 mM irradiated with >= 365 nm for 60 mins by RP-HPLC analysis", "format": "physicochemical", "conditions": "pH 7.4, 1 h, 100 µM"}, "B16-F10 [13]": {"test_system": "B16-F10", "assay": "Cytotoxicity against mouse B16-F10 cells assessed as cell viability at 10 uM irradiated with >= 365 nm Hg lamp for 5 mins after 6 hrs post-treatment and further incubated for 72 hrs by MTT assay", "format": "functional", "conditions": "B16-F10, light or radiation study, time 78 hrs, read-out: Activity"}}}
{"smiles": "CCn1c2ccccc2c2cc(-c3coc(=O)o3)ccc21", "values": [{"measurement": "remaining at 72 h, 100 µM", "setting": "[1]", "result": 96, "unit": "%"}, {"measurement": "remaining at 72 h, 100 µM", "setting": "[2]", "result": 87, "unit": "%"}, {"measurement": "Drug degradation", "setting": "[3]", "result": 100, "unit": "%"}, {"measurement": "Drug degradation", "setting": "[4]", "result": 100, "unit": "%"}, {"measurement": "Drug metabolism", "setting": "[5]", "result": 5.9, "unit": "ppm"}, {"measurement": "Drug uptake", "setting": "[6]", "result": "Active"}, {"measurement": "Drug metabolism", "setting": "B16-F10 [7]", "result": 100, "unit": "%"}, {"measurement": "Activity", "setting": "B16-F10 [8]", "result": 70, "unit": "%"}, {"measurement": "Drug degradation", "setting": "[9]", "result": 93, "unit": "%"}]}
{"smiles": "CCn1c2ccc(C(=O)C(O)O)cc2c2cc(-c3coc(=O)o3)ccc21", "values": [{"measurement": "degraded at 0.5 h, 100 µM", "setting": "[10]", "result": 100, "unit": "%"}]}
{"smiles": "CCn1c2ccc(C(=O)COC(=O)CCCc3ccc(N(CCCl)CCCl)cc3)cc2c2cc(-c3coc(=O)o3)ccc21", "values": [{"measurement": "remaining at 72 h, 100 µM", "setting": "[1]", "result": 96, "unit": "%"}, {"measurement": "remaining at 72 h, 100 µM", "setting": "[2]", "result": 93, "unit": "%"}, {"measurement": "Drug metabolism", "setting": "[11]", "result": "Active"}, {"measurement": "Drug metabolism", "setting": "[5]", "result": 5.7, "unit": "ppm"}, {"measurement": "Drug uptake", "setting": "[6]", "result": "Active"}, {"measurement": "Drug metabolism", "setting": "B16-F10 [7]", "result": 100, "unit": "%"}, {"measurement": "Activity", "setting": "B16-F10 [8]", "result": 35, "unit": "%"}, {"measurement": "Drug degradation", "setting": "[12]", "result": 88, "unit": "%"}]}
{"smiles": "O=C(O)CCCc1ccc(N(CCCl)CCCl)cc1", "note": "[CHLORAMBUCIL]", "values": [{"measurement": "viability at 10 µM", "setting": "B16-F10 [13]", "result": 80, "unit": "%"}]}
